# Publication PMC12027839, “Aging-Associated Amyloid-β Plaques and Neuroinflammation in Bottlenose Dolphins (Tursiops truncatus) and Novel Cognitive Health-Supporting Roles of Pentadecanoic Acid (C15:0)” (International Journal of Molecular Sciences, 2025)
# Columns and labels:
# [1] = target: Protein Tyrosine Kinase, Fyn (Homo sapiens, UniProt P06241); assay: biochemical; parameters: Eurofins Alzheimer's MoA LeadHunter enzyme assays; percent inhibition of enzyme activity, mean of duplicates; conditions: Ligand or Substrate=Poly(Glu:Tyr)
# Description: (§1) Standardized enzyme and radioligand binding assays were used by an independent third party (Eurofins Discovery, Taiwan) to evaluate C15:0 across ten concentrations and up to 50 µM for activities as part of the Eurofins Discovery Alzheimer’s MoA LeadHunter Panel. Methods employed in this study were adapted from the scientific literature to maximize reliability and reproducibility. Reference standards were run as an integral part of each assay to ensure the validity of the results obtained. IC50 values were determined by a non-linear, least squares regression analysis using MathIQTM (ID Business Solutions Ltd., Woking, UK). This study included evaluated inhibition of the following targets by C15:0 using enzyme assays (Cholinesterase, Acetyl, ACES; Cholinesterase, Butyryl, CHLE; Peptidase, CTSB (Cathepsin B); Cyclooxygenase COX-1; Cyclooxygenase COX-2; Myeloperoxidase; IDO1; Monoamine Oxidase MAO-A; Monoamine Oxidase MAO-B; Peptidase, Endothelin Converting Enzyme-1 (ECE-1); Peptidase, Metalloproteinase, Neutral Endopeptidase; Peptidase, BACE1 (beta-Secretase); Protein Tyrosine Kinase, Fyn; Protein Serine/Threonine Kinase, GSK3B; Protein Serine/Threonine Kinase, MAPK14 (p38alpha); Protein Tyrosine Phosphatase, DUSP22; Fatty Acid Amide Hydrolase (FAAH); Nitric Oxide Synthetase, Inducible (iNOS); Catechol-O-Methyl Transferase (COMT); and Lipoxygenase 15-LOX-2) and radioligand binding assays (Adenosine A2A; Transporter, GABA; GABAA, Ro-15-1788, Hippocampus; Glutamate, AMPA; Glutamate, NMDA, MK-801; Glutamate, NMDA, Polyamine; Glutamate, Metabotropic, mGlu5; Histamine H3; Chemokine CX3CR1; Muscarinic M1; Nicotinic Acetylcholine alpha7, Methyllycaconitine; Serotonin (5-Hydroxytryptamine) 5-HT1A, WAY-100635; Serotonin (5-Hydroxytryptamine) 5-HT4B; Serotonin (5-Hydroxytryptamine) 5-HT6; Sodium Channel, Site 1; Somatostatin sst4; Sigma 2; Sigma1; Platelet Activating Factor (PAF)). Biochemical assay results were presented as the percent inhibition of specific binding or activity. […] Primary screening was conducted in duplicate with semi-quantitative data (e.g., estimated IC50). Significant responses (≥50% inhibition) were noted.
# [2] = target: Protein Tyrosine Phosphatase, DUSP22 (Homo sapiens, UniProt Q9NRW4); assay: biochemical; parameters: Eurofins Alzheimer's MoA LeadHunter enzyme assays; percent inhibition of enzyme activity, mean of duplicates; conditions: Ligand or Substrate=DiFMUP
# Description: as §1
# [3] = target: Peptidase, CTSB (Cathepsin B) (Homo sapiens, UniProt P07858); assay: biochemical; parameters: Eurofins Alzheimer's MoA LeadHunter enzyme assays; percent inhibition of enzyme activity, mean of duplicates; conditions: Ligand or Substrate=Boc-Leu-Arg-Arg-AMC
# Description: as §1
# [4] = target: Catechol-O-Methyl Transferase (COMT) (Sus scrofa, UniProt Q99028); assay: biochemical; parameters: Eurofins Alzheimer's MoA LeadHunter enzyme assays; percent inhibition of enzyme activity, mean of duplicates; conditions: Ligand or Substrate=Esculetin
# Description: as §1
# [5] = target: T1, Fatty Acid Amide Hydrolase (FAAH) (Homo sapiens, UniProt O00519); assay: biochemical; parameters: Eurofins Alzheimer's MoA LeadHunter enzyme assays; percent inhibition of enzyme activity, mean of duplicates; conditions: Ligand or Substrate=AMC arachidonoyl amide
# Description: as §1
# Cyclooxygenase COX-1 = target: T2, Cyclooxygenase COX-1 (Homo sapiens, UniProt P23219); assay: biochemical; parameters: Eurofins Alzheimer's MoA LeadHunter enzyme assays; percent inhibition of enzyme activity, mean of duplicates; conditions: Ligand or Substrate=Arachidonic acid
# T2 construct: gene PTGS1
# Description: as §1
# [6] = target: T3, Peptidase, Endothelin Converting Enzyme-1 (ECE-1) (Homo sapiens, UniProt P42892); assay: biochemical; parameters: Eurofins Alzheimer's MoA LeadHunter enzyme assays; percent inhibition of enzyme activity, mean of duplicates; conditions: Ligand or Substrate=Mca-[…]Dnp)
# T3 construct: gene ECE1
# Description: as §1
# [7] = target: T4, Peptidase, Metalloproteinase, Neutral Endopeptidase (Homo sapiens, UniProt P08473); assay: biochemical; parameters: Eurofins Alzheimer's MoA LeadHunter enzyme assays; percent inhibition of enzyme activity, mean of duplicates; conditions: Ligand or Substrate=Mca-R-P-P-G-F-S-A-F-K(Dnp)-OH
# T4 construct: gene MME
# Description: as §1
# [8] = target: T5, Cholinesterase, Butyryl, CHLE (Homo sapiens, UniProt P06276); assay: biochemical; parameters: Eurofins Alzheimer's MoA LeadHunter enzyme assays; percent inhibition of enzyme activity, mean of duplicates; conditions: Ligand or Substrate=S-Butyrylthiocholine
# T5 construct: gene BCHE
# Description: as §1
# Myeloperoxidase = target: T6, Myeloperoxidase (Homo sapiens, UniProt P05164); assay: biochemical; parameters: Eurofins Alzheimer's MoA LeadHunter enzyme assays; percent inhibition of enzyme activity, mean of duplicates; conditions: Ligand or Substrate=Guaiacol
# T6 construct: gene MPO
# Description: as §1
# Lipoxygenase 15-LOX-2 = target: T7, Lipoxygenase 15-LOX-2 (Homo sapiens, UniProt O15296); assay: biochemical; parameters: Eurofins Alzheimer's MoA LeadHunter enzyme assays; percent inhibition of enzyme activity, mean of duplicates; conditions: Ligand or Substrate=AMC arachidonoyl amide
# T7 construct: gene ALOX15B
# Description: as §1
# Monoamine Oxidase MAO-A = target: T8, Monoamine Oxidase MAO-A (Homo sapiens, UniProt P21397); assay: biochemical; parameters: Eurofins Alzheimer's MoA LeadHunter enzyme assays; percent inhibition of enzyme activity, mean of duplicates; conditions: Ligand or Substrate=Kynuramine
# T8 construct: gene MAOA
# Description: as §1
# Monoamine Oxidase MAO-B = target: T9, Monoamine Oxidase MAO-B (Homo sapiens, UniProt P27338); assay: biochemical; parameters: Eurofins Alzheimer's MoA LeadHunter enzyme assays; percent inhibition of enzyme activity, mean of duplicates; conditions: Ligand or Substrate=Kynuramine
# T9 construct: gene MAOB
# Description: as §1
# [9] = target: Protein Serine/Threonine Kinase, GSK3B (Homo sapiens, UniProt P49841); assay: biochemical; parameters: Eurofins Alzheimer's MoA LeadHunter enzyme assays; percent inhibition of enzyme activity, mean of duplicates; conditions: Ligand or Substrate=Phospho-glycogen synthase peptide-2
# Description: as §1
# [10] = target: Peptidase, BACE1 (beta-Secretase) (Homo sapiens, UniProt P56817); assay: biochemical; parameters: Eurofins Alzheimer's MoA LeadHunter enzyme assays; percent inhibition of enzyme activity, mean of duplicates; conditions: Ligand or Substrate=MOCAc-S-E-V-N-L-D-A-E-F-R-K(Dnp)-R-R-NH2
# Description: as §1
# [11] = target: T10, Cholinesterase, Acetyl, ACES (Homo sapiens, UniProt P22303); assay: biochemical; parameters: Eurofins Alzheimer's MoA LeadHunter enzyme assays; percent inhibition of enzyme activity, mean of duplicates; conditions: Ligand or Substrate=Acetylthiocholine
# T10 construct: gene ACHE
# Description: as §1
# IDO1 = IDO1 (Homo sapiens, UniProt P14902); assay: biochemical; parameters: Eurofins Alzheimer's MoA LeadHunter enzyme assays; percent inhibition of enzyme activity, mean of duplicates; conditions: Ligand or Substrate=L-tryptophan (L-Trp)
# Description: as §1
# [12] = target: Protein Serine/Threonine Kinase, MAPK14 (p38alpha) (Homo sapiens, UniProt Q16539); assay: biochemical; parameters: Eurofins Alzheimer's MoA LeadHunter enzyme assays; percent inhibition of enzyme activity, mean of duplicates; conditions: Ligand or Substrate=Myelin Basic Protein (MBP)
# Description: as §1
# Cyclooxygenase COX-2 = target: T11, Cyclooxygenase COX-2 (Homo sapiens, UniProt P35354); assay: biochemical; parameters: Eurofins Alzheimer's MoA LeadHunter enzyme assays; percent inhibition of enzyme activity, mean of duplicates; conditions: Ligand or Substrate=Arachidonic acid
# T11 construct: gene PTGS2
# Description: as §1
# [13] = target: T12, Monoamine oxidase B (MAO-B) (Homo sapiens, UniProt P27338); assay: Enzyme assay with human recombinant MAO-B (insect cells), kynuramine substrate, spectrofluorimetric, […] concentrations; format: biochemical
# T12 construct: gene MAOB
# Somatostatin sst4 = target: T13, Somatostatin sst4 (Homo sapiens, UniProt P31391); assay: biochemical; parameters: Eurofins Alzheimer's MoA LeadHunter radioligand binding assays; percent inhibition of specific binding, mean of duplicates; conditions: Ligand or Substrate=[125I]Tyr11-Somatostatin 14
# T13 construct: gene SSTR4
# Description: as §1
# [14] = target: T14, Nicotinic Acetylcholine alpha7, Methyllycaconitine (Rattus norvegicus, UniProt Q05941); assay: biochemical; parameters: Eurofins Alzheimer's MoA LeadHunter radioligand binding assays; percent inhibition of specific binding, mean of duplicates; conditions: Ligand or Substrate=[3H]Methyllycaconitine
# T14 construct: gene Chrna7; methyllycaconitine site
# Description: as §1
# [15] = target: T15, Serotonin (5-Hydroxytryptamine) 5-HT4B (Homo sapiens, UniProt Q13639); assay: biochemical; parameters: Eurofins Alzheimer's MoA LeadHunter radioligand binding assays; percent inhibition of specific binding, mean of duplicates; conditions: Ligand or Substrate=[3H]GR-113808
# T15 construct: gene HTR4; isoform 5-HT4B
# Description: as §1
# [16] = target: T16, Platelet Activating Factor (PAF) (Homo sapiens, UniProt P25105); assay: biochemical; parameters: Eurofins Alzheimer's MoA LeadHunter radioligand binding assays; percent inhibition of specific binding, mean of duplicates; conditions: Ligand or Substrate=[3H]PAF
# T16 construct: gene PTAFR
# Description: as §1
# [17] = target: T17, Glutamate, Metabotropic, mGlu5 (Homo sapiens, UniProt P41594); assay: biochemical; parameters: Eurofins Alzheimer's MoA LeadHunter radioligand binding assays; percent inhibition of specific binding, mean of duplicates; conditions: Ligand or Substrate=[3H]Quisqualic acid
# T17 construct: gene GRM5
# Description: as §1
# Adenosine A2A = target: T18, Adenosine A2A (Homo sapiens, UniProt P29274); assay: biochemical; parameters: Eurofins Alzheimer's MoA LeadHunter radioligand binding assays; percent inhibition of specific binding, mean of duplicates; conditions: Ligand or Substrate=[3H]CGS-21680
# T18 construct: gene ADORA2A
# Description: as §1
# Sigma1 = target: T19, Sigma1 (Homo sapiens, UniProt Q99720); assay: biochemical; parameters: Eurofins Alzheimer's MoA LeadHunter radioligand binding assays; percent inhibition of specific binding, mean of duplicates; conditions: Ligand or Substrate=[3H]Pentazocine
# T19 construct: gene SIGMAR1
# Description: as §1
# Chemokine CX3CR1 = Chemokine CX3CR1 (Homo sapiens, UniProt P49238); assay: biochemical; parameters: Eurofins Alzheimer's MoA LeadHunter radioligand binding assays; percent inhibition of specific binding, mean of duplicates; conditions: Ligand or Substrate=[125I]Fractalkine
# Description: as §1
# Histamine H3 = target: T20, Histamine H3 (Homo sapiens, UniProt Q9Y5N1); assay: biochemical; parameters: Eurofins Alzheimer's MoA LeadHunter radioligand binding assays; percent inhibition of specific binding, mean of duplicates; conditions: Ligand or Substrate=[3H]N-alpha-Methylhistamine (NAMH)
# T20 construct: gene HRH3
# Description: as §1
# [18] = target: T21, Serotonin (5-Hydroxytryptamine) 5-HT6 (Homo sapiens, UniProt P50406); assay: biochemical; parameters: Eurofins Alzheimer's MoA LeadHunter radioligand binding assays; percent inhibition of specific binding, mean of duplicates; conditions: Ligand or Substrate=[3H]Lysergic acid diethylamide (LSD)
# T21 construct: gene HTR6
# Description: as §1
# Muscarinic M1 = target: T22, Muscarinic M1 (Homo sapiens, UniProt P11229); assay: biochemical; parameters: Eurofins Alzheimer's MoA LeadHunter radioligand binding assays; percent inhibition of specific binding, mean of duplicates; conditions: Ligand or Substrate=[3H]N-Methylscopolamine
# T22 construct: gene CHRM1
# Description: as §1
# [19] = target: T23, Serotonin (5-Hydroxytryptamine) 5-HT1A, WAY-100635 (Homo sapiens, UniProt P08908); assay: biochemical; parameters: Eurofins Alzheimer's MoA LeadHunter radioligand binding assays; percent inhibition of specific binding, mean of duplicates; conditions: Ligand or Substrate=[3H]WAY100635
# T23 construct: gene HTR1A; WAY-100635
# Description: as §1
# [20] = target: T1, Fatty Acid Amide Hydrolase (FAAH); assay: Enzyme assay with human recombinant FAAH (Sf21 cells), AMC arachidonoyl amide substrate, spectrofluorimetric, […] concentrations; format: biochemical
# T1 sequence (O00519 whole entry): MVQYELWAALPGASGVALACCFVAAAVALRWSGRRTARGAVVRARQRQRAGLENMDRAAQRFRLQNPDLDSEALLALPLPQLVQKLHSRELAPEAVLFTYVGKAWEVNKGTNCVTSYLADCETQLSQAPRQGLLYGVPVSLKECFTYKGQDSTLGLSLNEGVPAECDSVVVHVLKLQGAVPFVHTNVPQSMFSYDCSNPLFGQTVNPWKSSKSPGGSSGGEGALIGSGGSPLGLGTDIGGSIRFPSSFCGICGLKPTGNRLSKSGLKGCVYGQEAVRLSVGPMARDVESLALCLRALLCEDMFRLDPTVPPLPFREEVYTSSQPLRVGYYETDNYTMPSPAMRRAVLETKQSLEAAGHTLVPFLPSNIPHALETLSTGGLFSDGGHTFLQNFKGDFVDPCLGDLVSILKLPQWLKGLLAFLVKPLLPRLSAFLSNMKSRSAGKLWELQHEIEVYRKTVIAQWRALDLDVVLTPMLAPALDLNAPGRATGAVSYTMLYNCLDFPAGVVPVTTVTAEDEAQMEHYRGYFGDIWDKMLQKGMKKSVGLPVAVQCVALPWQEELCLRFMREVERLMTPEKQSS
# Protein Tyrosine Kinase, Fyn, sequence (P06241 whole entry): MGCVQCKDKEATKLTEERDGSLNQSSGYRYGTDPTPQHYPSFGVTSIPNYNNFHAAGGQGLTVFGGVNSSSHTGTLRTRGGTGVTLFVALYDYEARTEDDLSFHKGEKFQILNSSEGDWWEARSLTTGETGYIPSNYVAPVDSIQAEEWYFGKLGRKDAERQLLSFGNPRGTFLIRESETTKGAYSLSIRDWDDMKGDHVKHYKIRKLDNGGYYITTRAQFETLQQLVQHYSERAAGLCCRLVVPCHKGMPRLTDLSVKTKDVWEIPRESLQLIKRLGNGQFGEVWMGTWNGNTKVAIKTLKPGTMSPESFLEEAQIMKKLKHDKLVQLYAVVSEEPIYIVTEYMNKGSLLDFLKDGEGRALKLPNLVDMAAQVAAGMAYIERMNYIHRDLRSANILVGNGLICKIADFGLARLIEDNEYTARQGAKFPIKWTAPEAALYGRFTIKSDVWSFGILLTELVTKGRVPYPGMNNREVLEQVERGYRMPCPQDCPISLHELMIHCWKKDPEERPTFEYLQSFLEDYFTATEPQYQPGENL
# T18 sequence (P29274 whole entry): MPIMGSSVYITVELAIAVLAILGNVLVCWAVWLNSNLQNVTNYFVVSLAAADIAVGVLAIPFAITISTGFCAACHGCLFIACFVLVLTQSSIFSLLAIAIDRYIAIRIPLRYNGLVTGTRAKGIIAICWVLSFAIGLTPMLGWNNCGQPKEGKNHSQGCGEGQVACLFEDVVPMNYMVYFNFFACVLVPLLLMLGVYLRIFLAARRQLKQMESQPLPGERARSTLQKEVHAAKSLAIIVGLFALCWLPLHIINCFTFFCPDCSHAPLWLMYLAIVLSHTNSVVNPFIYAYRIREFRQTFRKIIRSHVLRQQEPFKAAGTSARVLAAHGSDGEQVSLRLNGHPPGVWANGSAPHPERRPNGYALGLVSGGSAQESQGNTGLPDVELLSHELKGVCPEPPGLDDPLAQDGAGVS
# T5 sequence (P06276 whole entry): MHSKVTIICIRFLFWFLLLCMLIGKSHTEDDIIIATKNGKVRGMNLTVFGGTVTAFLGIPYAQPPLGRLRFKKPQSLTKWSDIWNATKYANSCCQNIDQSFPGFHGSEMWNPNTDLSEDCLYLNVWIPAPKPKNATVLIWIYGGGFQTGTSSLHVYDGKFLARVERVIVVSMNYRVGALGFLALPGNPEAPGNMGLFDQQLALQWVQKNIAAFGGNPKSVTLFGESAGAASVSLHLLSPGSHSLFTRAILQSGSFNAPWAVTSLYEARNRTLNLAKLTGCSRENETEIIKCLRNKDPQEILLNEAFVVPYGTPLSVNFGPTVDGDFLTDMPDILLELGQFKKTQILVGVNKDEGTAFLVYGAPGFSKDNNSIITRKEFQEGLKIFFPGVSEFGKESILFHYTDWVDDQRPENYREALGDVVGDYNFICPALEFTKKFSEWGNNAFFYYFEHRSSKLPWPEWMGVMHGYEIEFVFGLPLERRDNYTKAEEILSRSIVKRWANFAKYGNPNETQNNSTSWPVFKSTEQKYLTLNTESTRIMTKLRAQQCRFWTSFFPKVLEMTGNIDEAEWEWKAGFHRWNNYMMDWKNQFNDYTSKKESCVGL
# T10 sequence (P22303 whole entry): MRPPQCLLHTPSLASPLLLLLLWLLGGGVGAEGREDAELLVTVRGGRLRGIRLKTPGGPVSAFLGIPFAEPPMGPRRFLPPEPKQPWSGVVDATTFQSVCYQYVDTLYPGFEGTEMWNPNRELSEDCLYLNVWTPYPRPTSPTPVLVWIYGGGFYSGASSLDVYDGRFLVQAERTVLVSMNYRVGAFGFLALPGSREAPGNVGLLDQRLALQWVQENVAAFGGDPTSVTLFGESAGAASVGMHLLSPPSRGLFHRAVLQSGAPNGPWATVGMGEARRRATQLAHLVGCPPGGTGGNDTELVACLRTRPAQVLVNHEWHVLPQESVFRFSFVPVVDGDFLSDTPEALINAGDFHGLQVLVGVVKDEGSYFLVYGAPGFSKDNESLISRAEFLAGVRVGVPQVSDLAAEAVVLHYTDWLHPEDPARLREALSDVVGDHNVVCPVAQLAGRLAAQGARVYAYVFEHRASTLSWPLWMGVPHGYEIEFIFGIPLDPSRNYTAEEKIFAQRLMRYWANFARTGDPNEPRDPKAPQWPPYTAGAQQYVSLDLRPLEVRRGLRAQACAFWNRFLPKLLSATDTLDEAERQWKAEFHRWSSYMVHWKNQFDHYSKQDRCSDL
# T23 sequence (P08908 whole entry): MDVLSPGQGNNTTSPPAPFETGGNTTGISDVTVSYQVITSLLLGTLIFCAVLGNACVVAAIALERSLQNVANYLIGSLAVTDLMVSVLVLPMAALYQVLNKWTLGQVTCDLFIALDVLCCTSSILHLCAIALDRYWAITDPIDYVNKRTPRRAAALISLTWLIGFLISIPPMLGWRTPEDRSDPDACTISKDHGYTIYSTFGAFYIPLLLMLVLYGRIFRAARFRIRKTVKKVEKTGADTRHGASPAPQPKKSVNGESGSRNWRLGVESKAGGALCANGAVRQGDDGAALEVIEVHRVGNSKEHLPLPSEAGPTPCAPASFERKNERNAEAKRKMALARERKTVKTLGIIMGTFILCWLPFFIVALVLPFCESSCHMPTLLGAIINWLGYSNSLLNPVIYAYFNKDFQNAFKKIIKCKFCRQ
# T4 sequence (P08473 whole entry): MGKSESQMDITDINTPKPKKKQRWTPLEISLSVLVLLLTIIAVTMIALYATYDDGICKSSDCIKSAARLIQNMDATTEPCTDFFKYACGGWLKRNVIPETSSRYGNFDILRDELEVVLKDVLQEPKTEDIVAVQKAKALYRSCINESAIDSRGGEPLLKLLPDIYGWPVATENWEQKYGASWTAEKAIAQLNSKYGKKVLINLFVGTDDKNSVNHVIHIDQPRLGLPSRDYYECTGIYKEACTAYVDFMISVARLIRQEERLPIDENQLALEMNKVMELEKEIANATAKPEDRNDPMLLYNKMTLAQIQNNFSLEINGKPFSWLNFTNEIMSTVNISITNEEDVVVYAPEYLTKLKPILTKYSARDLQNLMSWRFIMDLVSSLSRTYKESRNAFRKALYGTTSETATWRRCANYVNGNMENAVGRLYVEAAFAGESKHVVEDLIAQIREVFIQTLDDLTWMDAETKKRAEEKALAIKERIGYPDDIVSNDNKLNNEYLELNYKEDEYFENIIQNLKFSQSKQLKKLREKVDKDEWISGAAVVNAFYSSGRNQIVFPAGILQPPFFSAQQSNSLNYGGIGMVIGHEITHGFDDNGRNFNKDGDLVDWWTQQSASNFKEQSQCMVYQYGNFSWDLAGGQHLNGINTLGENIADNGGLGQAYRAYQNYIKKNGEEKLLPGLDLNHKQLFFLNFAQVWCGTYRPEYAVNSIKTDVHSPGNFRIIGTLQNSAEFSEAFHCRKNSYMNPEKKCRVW
# T8 sequence (P21397 whole entry): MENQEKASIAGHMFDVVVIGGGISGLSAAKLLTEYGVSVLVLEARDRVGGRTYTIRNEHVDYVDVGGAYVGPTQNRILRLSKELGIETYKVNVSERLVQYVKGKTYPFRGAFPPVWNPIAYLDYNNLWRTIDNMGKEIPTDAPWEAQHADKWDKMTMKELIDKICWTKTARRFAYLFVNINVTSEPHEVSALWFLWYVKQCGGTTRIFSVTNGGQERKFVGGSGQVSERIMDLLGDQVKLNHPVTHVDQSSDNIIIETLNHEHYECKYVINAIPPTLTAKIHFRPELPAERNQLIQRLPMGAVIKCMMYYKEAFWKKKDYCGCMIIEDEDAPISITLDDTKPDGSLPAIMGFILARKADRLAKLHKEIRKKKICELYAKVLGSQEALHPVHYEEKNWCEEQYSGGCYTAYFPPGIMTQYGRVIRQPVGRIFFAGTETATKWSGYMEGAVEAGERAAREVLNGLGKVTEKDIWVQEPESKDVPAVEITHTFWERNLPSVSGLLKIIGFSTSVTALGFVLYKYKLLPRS
# T21 sequence (P50406 whole entry): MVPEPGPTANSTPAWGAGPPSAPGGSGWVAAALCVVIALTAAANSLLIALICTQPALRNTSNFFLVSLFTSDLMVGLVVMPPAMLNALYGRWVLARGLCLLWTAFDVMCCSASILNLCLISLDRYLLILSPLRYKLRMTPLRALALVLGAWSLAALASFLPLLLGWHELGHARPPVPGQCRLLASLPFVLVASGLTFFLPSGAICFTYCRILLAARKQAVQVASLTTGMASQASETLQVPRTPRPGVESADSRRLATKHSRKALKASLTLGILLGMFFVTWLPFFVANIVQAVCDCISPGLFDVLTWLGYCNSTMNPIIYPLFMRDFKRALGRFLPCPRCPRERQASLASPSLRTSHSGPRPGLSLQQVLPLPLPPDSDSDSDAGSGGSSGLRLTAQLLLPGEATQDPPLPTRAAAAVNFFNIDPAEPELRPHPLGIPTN
smiles,measurement,setting,value
"CCCCCCCCCCCCCCC(=O)O [C15:0, Pentadecanoic acid]",inhibition at 20 µM,[1],-16.2%
same,inhibition at 20 µM,[2],-28.1%
same,inhibition at 20 µM,[3],-35.2%
same,inhibition at 20 µM,[4],1.5%
same,inhibition at 20 µM,[5],70.3%
same,inhibition at 20 µM,Cyclooxygenase COX-1,-17%
same,inhibition at 20 µM,[6],7.1%
same,inhibition at 20 µM,[7],2.1%
same,inhibition at 20 µM,[8],2.5%
same,inhibition at 20 µM,Myeloperoxidase,44.8%
same,inhibition at 20 µM,Lipoxygenase 15-LOX-2,8%
same,inhibition at 20 µM,Monoamine Oxidase MAO-A,11.4%
same,inhibition at 20 µM,Monoamine Oxidase MAO-B,64.7%
same,inhibition at 20 µM,[9],15%
same,inhibition at 20 µM,[10],2.4%
same,inhibition at 20 µM,[11],44.7%
same,inhibition at 20 µM,IDO1,39.4%
same,inhibition at 20 µM,[12],-14.8%
same,inhibition at 20 µM,Cyclooxygenase COX-2,5.3%
same,IC50,[13],19.4 µM
same,inhibition at 20 µM,Somatostatin sst4,-4.4%
same,inhibition at 20 µM,[14],-9.1%
same,inhibition at 20 µM,[15],-1.7%
same,inhibition at 20 µM,[16],-6.6%
same,inhibition at 20 µM,[17],0%
same,inhibition at 20 µM,Adenosine A2A,10.7%
same,inhibition at 20 µM,Sigma1,-18.6%
same,inhibition at 20 µM,Chemokine CX3CR1,5.3%
same,inhibition at 20 µM,Histamine H3,1.7%
same,inhibition at 20 µM,[18],-16.1%
same,inhibition at 20 µM,Muscarinic M1,9%
same,inhibition at 20 µM,[19],3.9%
same,IC50,[20],2.51 µM
